Experiment: gradient 5% acetonitrile 3 min, to 50% in 2 min, to 85% in 15 min, held 3 min, 100 µL/min
Details: column: Zorbax Extend-C18 2.1 x 50 mm; eluents: water / acetonitrile, 0.1% formic acid
Procedure, shortened: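 Data were gathered over 3 months by HPLC coupled to a quadrupole time-of-flight mass spectrometer, operated in positive and negative ionization mode. Mixtures of ~100 pure standards ran on a Zorbax Extend-C18 column (2.1 × 50 mm, 1.8 μm) at 100 μL/min, with water and acetonitrile each containing 0.1% formic acid and dead and dwell volumes of 40 μL and 900 μL. Retention time was read from adduct peaks picked by computer and checked manually.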

| RP-LC retention time [s] | Compound |
| --- | --- |
| 968 | CCOc1cccc(C2c3[nH]c4ccccc4c3CCN2C(=O)c2cccnc2)c1 (centres undefined) |
| 672 | Cc1nnc(-c2ccc(=O)n(CC(=O)NCc3ccc(F)c(Cl)c3)c2)o1 |
| 1180 | CCc1ccccc1NC(=O)Cn1nc(N2CCCC(C)C2)c2ccccc2c1=O (centres undefined) |
| 680 | CCc1ccc(S(=O)(=O)c2cnc(N3CCN(c4ccccn4)CC3)nc2N)cc1 |
| 587 | COc1ccc2[nH]c3c(c2c1)CCNC31CCN(Cc2ccc(F)c(F)c2)CC1 |
| 747 | CCc1cc(=O)n(CC(=O)NCc2ccc(C)cc2)c(N2CCOCC2)n1 |
| 1180 | Cc1ccc(Cl)cc1NC(=O)c1cc2ccccc2cc1O |
| 779 | CC(=O)N1c2ccc(S(=O)(=O)N3CCCC3C(=O)NCc3ccc4c(c3)OCO4)cc2CC1C (centres undefined) |
| 956 | COc1ccc(N2CCN(c3nccc(-n4nc(C)cc4C)n3)CC2)cc1 |
| 903 | Cc1ccccc1OCC(=O)NC(C)c1ccccc1 (centres undefined) |
| 816 | Cc1cc(C2CCCN2C(=O)Cc2cccc(Cl)c2)no1 (centres undefined) |
| 669 | O=C(NCc1cccnc1)c1nnc(-c2ccc(S(=O)(=O)N3CCCCC3)cc2)o1 |
| 702 | COc1ccc(NC(=O)Nc2c(-c3cccc(C)c3)nc3ccccn23)cc1Cl |
| 802 | Cc1cccc(N2CC(C(=O)N3CCCCCC3)CC2=O)c1 (centres undefined) |
| 809 | Cc1ccc2c(c1)NN=C(C(=O)N1CCC(C)CC1)S2(=O)=O |
| 1060 | Cc1ccc(-c2nnc(-c3nn(C)c4c3CN(S(=O)(=O)c3ccc(Cl)s3)CC4)o2)cc1 |
| 639 | COc1cccc(NC(=O)Nc2c(-c3ccsc3)nc3ccccn23)c1 |
| 732 | COc1ccccc1N1CCN(c2nc3ccc(C)cc3cc2-c2noc(C)n2)CC1 |
| 816 | Cc1cc(-c2ccc(S(=O)(=O)N3CCC(C(=O)NCc4ccccc4C)CC3)o2)n[nH]1 |
| 1260 | Fc1cccc(-c2noc(Cc3nc(-c4ccccc4Cl)cs3)n2)c1 |
| 942 | O=C(c1ccc(-c2nccnc2N2CCCC2)cc1)N1CCN(c2ccccc2)CC1 |
| 1010 | Cc1ccc(C)c(N2CCN(c3ccnc(SCC(=O)Nc4ccccc4C)n3)CC2)c1 |
| 1060 | COc1ccc(S(=O)(=O)N2CCCC(C(=O)Nc3cccc(C)c3)C2)cc1Cl (centres undefined) |
| 777 | O=C(Nc1ccc2c(c1)OCCO2)N1CCCn2nc(-c3cccs3)cc2C1 |
| 626 | CCN(CC)c1ccc(NC(=O)c2cccs2)cc1C(=O)O |
| 621 | COc1ccc(-c2nnc(N3CCC(C(=O)NC(C)c4ccccn4)CC3)o2)cc1 (centres undefined) |
| 834 | O=C(COc1ccccc1F)Nc1ccc2c(c1)N(C(=O)c1ccco1)CCC2 |

| RP-LC retention time [s] | Compound |
| --- | --- |
| 725 | CC(C)NC(=O)C1COC2(CCN(C(=O)c3cccc(Cl)c3)CC2)N1C(=O)c1ccccc1 (centres undefined) |
| 636 | Cn1nc(C(=O)N2C[C@@H]3C[C@H](NC(=O)c4cccnc4)[C@H]2C3)c2ccccc21 |
| 634 | O=C1CC(C(=O)N2CCN(Cc3ccccc3)CC2)CN1CCc1c[nH]c2ccc(F)cc12 (centres undefined) |
| 894 | Cc1ccc(S(=O)(=O)N2CCC(CCNC(=O)NC3CCCC3)CC2)cc1 |
| 616 | CCOC(=O)C1CCCN(C(=O)c2ccc(SCCN3CCOCC3)nc2)C1 (centres undefined) |
| 685 | CC(=O)Nc1ccc(C(=O)N2CC3CN(S(=O)(=O)c4cccc(F)c4)CC(C2)O3)cc1 |
| 758 | CCCC(=O)Nc1ccc(-n2cnc(C(=O)NC3CCCCC3)c2)nc1 |
| 889 | O=C(NCCc1cccs1)c1nnc(-c2ccc(S(=O)(=O)N3CCCC3)cc2)o1 |
| 930 | O=C(NCCc1ccco1)c1ccc2nc(CCc3ccccc3)oc2c1 |
| 887 | Cc1ccc(-n2nc(C(=O)Nc3ccc4c(c3)OCCO4)c3ncn(C)c(=O)c32)cc1 |
| 627 | Cc1ccc(C(=O)N2CCCn3cc(-c4ccccc4F)nc32)cn1 |
| 988 | CCOC(=O)c1cc(S(=O)(=O)N2CCCC2C(=O)Nc2ccc(C)c(F)c2)cn1C (centres undefined) |
| 651 | COc1ccc(N2CCN(C(=O)c3csc(-c4ccc(N5CCCC5)nc4)n3)CC2)cc1 |
| 815 | CCn1cc(S(=O)(=O)N2C[C@H]3CN(S(=O)(=O)c4cccc(F)c4)C[C@@H](C2)O3)cn1 |
| 812 | Cc1nn(-c2ccccc2)c(C)c1S(=O)(=O)N1CCC(C(=O)NCCc2ccccc2)CC1 |
| 946 | O=C(c1cccc(F)c1)N1CCCC1c1nc(-c2ccccc2)no1 (centres undefined) |
| 929 | CC(C)c1ccc(NC(=O)C2CC(=O)N(CCc3c[nH]c4ccc(F)cc34)C2)cc1 (centres undefined) |
| 987 | O=C(NCc1csc(-c2ccccc2)n1)C1CCN(S(=O)(=O)c2ccc(F)c(Cl)c2)CC1 |
| 939 | CC1=C(c2ccc(C(C)C)cc2)S(=O)(=O)N=C1N1CCC(C(=O)NCc2ccco2)CC1 |
| 588 | O=C(Cn1nc(-c2ccco2)ccc1=O)NCCOc1cc(N2CCCCC2)ncn1 |
| 743 | COc1ccc(N2CCN(C(=O)Cn3ccc4c(SCc5ccccc5)nccc43)CC2)cc1 |
| 602 | CN(Cc1ccc(Cl)cc1)Cc1cc(=O)n2ccccc2n1 |
| 1150 | Cc1cccc(-c2nsc(SCC(=O)N3CCc4ccccc43)n2)c1 |
| 864 | O=C(c1cnn2c(-c3ccc4c(c3)OCO4)ccnc12)N1CCN(c2ccccc2)CC1 |
| 768 | Cc1ccc(C)c(NC(=O)C2CCN(S(=O)(=O)c3ccc4c(c3)CCCC(=O)N4)CC2)c1 |
| 745 | COc1ccc(OCC(=O)NS(=O)(=O)c2ccccc2)cc1 |

More lines, now with the values behind:

| Compound | RP-LC retention time [s] |
| --- | --- |
| Cn1c([N+](=O)[O-])cnc1N1CCN(c2nncs2)C1=O | 689 |
| O=C(NCc1ccc(C(F)(F)F)cc1)c1ccc(-c2cncnc2)nc1 | 782 |
| CCn1c(=O)sc2cc(S(=O)(=O)N3CCC(C(=O)N4CCC(C)CC4)CC3)ccc21 | 900 |
| CCOc1ccc(-c2cn3ccn(-c4cccc(F)c4)c(=O)c3n2)cc1 | 846 |
| CCOC(=O)Cc1[nH]nc2ccc(F)cc12 | 697 |
| Cc1cc(C)cc(C(=O)NCc2ccc3c(c2)nnn3C)c1 | 755 |
| Cc1nnc2ccc(S(=O)(=O)Nc3ccc(Cl)cc3)cn12 | 711 |
| CSC[C@H]1O[C@@H](n2cnc3c(N)ncnc32)[C@@H](O)[C@H]1O | 575 |
| Cc1[nH]c(C)c(S(=O)(=O)N2CCC(C(=O)N3CCCCC3C)CC2)c1C(=O)N1CCCCC1 (centres undefined) | 724 |
| CCn1c(=O)c2ccn(CC(=O)NCc3ccc(SC)cc3)c2n(CC)c1=O | 744 |
| COC(=O)C1=CC(=O)N2CCN=C2S1 | 691 |
| Cc1cc(Nc2nc3ccncc3n(C(C)C)c2=O)ccc1F | 679 |
| COc1ccc(-c2ccnc3nc(CCc4ccc(OC)c(OC)c4)nn23)cc1 | 859 |
| CCN1C(=O)COc2ccc(-c3noc(-c4ccccc4F)n3)cc21 | 1070 |
| O=C(CSc1nnc2c(=O)n(-c3ccc(F)cc3)ccn12)c1ccc(F)cc1 | 802 |
| CC(C)c1noc(-c2ccn3c(CC(=O)NC4CCCCC4)nnc3c2)n1 | 760 |
| CCn1cc(C(=O)NCCn2c(C)cnc2C2CCC2)cn1 | 557 |
| NC1=C(Br)C(=O)c2ncccc2C1=O | 599 |

| Compound | RP-LC retention time [s] |
| --- | --- |
| Nc1c(C(=O)Nc2ccccc2F)sc2nc3c(cc12)CCCC3 | 996 |
| Cc1ccc(-n2nc(C)c3sc(N(C)CC(=O)N4CCC5(CC4)OCCO5)nc32)cc1 | 932 |
| CCOc1ccc(-c2noc(CN3N=NC4C(=O)N(c5ccc(OC)cc5)C(=O)C43)n2)cc1OC (centres undefined) | 924 |
| CCc1nc2ccc(-c3noc(-c4ccc(C#N)cc4)n3)cc2n1CC | 716 |
| CCn1nccc1-c1cccc(-c2noc(-c3ccc(F)c(F)c3)n2)c1 | 1270 |
| CCN1C(=O)c2cccc3c(NC(=O)c4c(F)cccc4F)ccc1c23 | 739 |
| O=C(CC1CCCC1)Nc1ccc(N2CCN(C3CCCC3)C2=O)nc1 | 801 |
| Cc1ccc(-n2c(=O)c3c(cc(C)n3C)n(CC(=O)Nc3ccc(C)cc3Cl)c2=O)cc1 | 960 |
| O=C(Nc1ccc(SCc2nnc(-c3ccccc3)o2)cc1)c1ccc(Br)o1 | 1010 |
| O=C(Nc1cc(-c2cccs2)no1)C1CCC1 | 862 |
| CC(C)(C)C(=O)N1CCN(CC(F)(F)F)CC1 | 746 |
| Cc1ccc(-c2nnc(CC(=O)NCC(C)C)o2)cc1 | 775 |
| CCOC(=O)C1CCN(S(=O)(=O)c2c(C)nc3sc(C)nn23)CC1 | 804 |
| CNC(=O)c1cc(Nc2ccc3nc(Nc4ccc(Cl)c(C(F)(F)F)c4)[nH]c3c2)ccn1 | 631 |
| CCN1C(=O)c2cccnc2Sc2cc(CNC(=O)Cc3ccsc3)ccc21 | 728 |
| Cc1noc(-c2cccnc2N2CCCN(Cc3cc(F)cc(F)c3)CC2)n1 | 659 |
| CC(C)Cc1csc(-c2csc(S(=O)(=O)NCc3cc(F)cc(F)c3)c2)n1 | 1200 |
| Cc1csc(COc2ccc(C(=O)Nc3ccc4cn[nH]c4c3)cc2)n1 | 711 |
